These results are taken from PMC8401736, “Identification and In Silico Characterization of Novel Helicobacter pylori Glucose-6-Phosphate Dehydrogenase Inhibitors” (Molecules, 2021).

One test addresses recombinant human HsG6PD (Homo sapiens, UniProt P11413). Description: Inhibition of recombinant human HsG6PD at 400 μM. The format is biochemical. The note with it: 400 μM compound.
The target in a further test is HpG6PD enzyme (Helicobacter pylori, UniProt P56110). Description: Inactivation assays of the HpG6PD enzyme with increasing concentrations of compounds. The conditions noted are these: for inhibition at 800 µM: 2 h, read-out: loss of HpG6PD activity; for IC50: from plots of residual activity after incubation for 2 h at 37 °C, 200 μg/mL HpG6PD; for reduction of HpG6PD activity: at the highest concentration tested. It is filed as biochemical. On the procedure: Subsequently, we performed inactivation assays using different concentrations of compounds to analyze their concentration–activity effect. […] As each of the compound’s concentrations was increased, the residual HpG6PD activity decreased in different degrees. For example, the exposure of the HpG6PD enzyme to YGC-3 and YGC-4 induced the abolition of the enzyme activity in a very similar manner (Figure 3A), the HpG6PD enzyme lost 80% of its activity at 800 µM, but when the enzyme was incubated with YGC-1, we observed a 91% loss in activity at 800 μM. On the other hand, MGD-1 and MGD-2 inactivated the HpG6PD enzyme, with 80% and 72% reductions, respectively, at the highest concentration tested (Figure 3B). […] In contrast, JMM-3 inhibited the HpG6PD enzyme at 80% with 800 µM (Figure 3D).
Sequence of HpG6PD enzyme (P56110 whole entry): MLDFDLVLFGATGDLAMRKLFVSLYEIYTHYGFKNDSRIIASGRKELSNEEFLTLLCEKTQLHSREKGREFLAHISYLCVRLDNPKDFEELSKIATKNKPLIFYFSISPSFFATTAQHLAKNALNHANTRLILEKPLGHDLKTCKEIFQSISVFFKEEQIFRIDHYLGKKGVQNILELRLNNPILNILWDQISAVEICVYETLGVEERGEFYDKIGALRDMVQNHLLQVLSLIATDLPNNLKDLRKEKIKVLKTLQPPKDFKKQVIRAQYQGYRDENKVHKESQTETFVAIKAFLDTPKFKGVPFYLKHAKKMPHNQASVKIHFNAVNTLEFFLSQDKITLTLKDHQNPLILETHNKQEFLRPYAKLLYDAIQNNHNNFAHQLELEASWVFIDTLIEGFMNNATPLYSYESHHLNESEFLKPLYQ
Figure 3 Inactivation assays of the HpG6PD enzyme with chemical compounds. The HpG6PD protein was adjusted at a final concentration of 200 μg/mL and incubated with increasing concentrations of the (A) YGC family; (B) MGD family; (C) TDA-1 compound; and (D) JMM-3 compound. The residual activity was determined after 2 h of incubation at 37 °C. […] The values represent the mean ± standard deviation from three independent experiments, and standard errors were lower than 5%.
(§1) Enzymatic activity was spectrophotometrically determined following the reduction of NADP^+ at 340 nm. The standard reaction mix contains 50 mM Tris-HCl, pH 7.6, 3 mM MgCl2, 200 µM glucose 6 phosphate and 100 µM NADP^+. The reaction was started with the addition of 1 µg of the purified HpG6PD. One unit of activity was defined as the amount of HpG6PD that catalyzes the oxidation of 1 µmol of glucose 6 phosphate per minute.

Test [1] deals with recombinant HpG6PD (H. pylori glucose-6-phosphate dehydrogenase). Description: High-throughput screening of HpG6PD residual activity at 400 μM. The format is biochemical, Helicobacter pylori. The conditions noted are these: 400 μM compound, 5% DMSO, 0.2 mg/mL HpG6PD, 37 °C for two hours. On the procedure: as §1
A chemical library of 55 compounds was evaluated through high-throughput screening (HTS) assays to determine those compounds with the ability to reduce the catalytic activity of the recombinant HpG6PD. Dr. Gabriel Navarrete-Vázquez from the Pharmacy Faculty of the Autonomous University of the State of Morelos provided the chemical compounds [32]. These compounds were selected based on the previously reported chemical inhibitors of human G6PD [21], prepared at a final concentration of 400 μM in 5% dimethyl sulfoxide (DMSO) (Sigma Aldrich, St. Louis, MO, USA), incubated with 0.2 mg/mL of HpG6PD (200 ng total) at 37 °C for two hours, and the HpG6PD residual activity was measured. In addition, the HpG6PD protein was incubated with 5% DMSO and used as a control.

Sequence of recombinant human HsG6PD (P11413 whole entry): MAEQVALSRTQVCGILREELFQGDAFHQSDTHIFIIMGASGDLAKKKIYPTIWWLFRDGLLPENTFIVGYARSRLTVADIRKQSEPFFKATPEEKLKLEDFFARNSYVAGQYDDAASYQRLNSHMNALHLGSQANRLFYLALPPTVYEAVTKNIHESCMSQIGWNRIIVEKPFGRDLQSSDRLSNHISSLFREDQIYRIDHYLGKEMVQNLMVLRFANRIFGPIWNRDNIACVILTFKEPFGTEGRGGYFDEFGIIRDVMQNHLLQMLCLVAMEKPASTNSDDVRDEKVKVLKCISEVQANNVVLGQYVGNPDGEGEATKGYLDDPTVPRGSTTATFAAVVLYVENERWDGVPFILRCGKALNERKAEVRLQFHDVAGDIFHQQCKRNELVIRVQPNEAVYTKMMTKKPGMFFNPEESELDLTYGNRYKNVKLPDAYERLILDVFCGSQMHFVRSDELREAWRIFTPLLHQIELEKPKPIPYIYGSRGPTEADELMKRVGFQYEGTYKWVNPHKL

On to `COc1cc(CCC(=O)O)ccc1OCc1ccc(-c2ccccc2C#N)cc1` [JMM-3], for which the inhibition at 400 µM on recombinant human HsG6PD was determined as 3%. At HpG6PD enzyme, the inhibition at 800 µM came out at 80% and the half-inhibitory concentration (IC50) – broadly, the concentration needed to halve the response being measured – was found to be 304 µM. In test [1], the “HpG6PD Inhibition (%) at (400 μM)” value amounted to 67%.
As for `O=C(O)CCc1ccc(NC(=O)CSc2nc3ccccc3[nH]2)cc1` [MGD-1], the inhibition at 400 µM at recombinant human HsG6PD is 4%. The “reduction of HpG6PD activity” value on HpG6PD enzyme (incubation for 2 h at 37 °C) is 80%. Besides, at HpG6PD enzyme, half-maximal inhibition (IC50) was put at 465 µM. In addition, the “HpG6PD Inhibition (%) at (400 μM)” value in test [1] was found to be 50%.
Consider `O=C(O)CCc1ccc(NC(=O)CSc2nc3ccccc3o2)cc1` [MGD-2], for which the inhibition at 400 µM on recombinant human HsG6PD was determined as 2%. Further, on HpG6PD enzyme (incubation for 2 h at 37 °C), the “reduction of HpG6PD activity” value turned out to be 72%. Moreover, the IC50 on HpG6PD enzyme is 340 µM. Moreover, the “HpG6PD Inhibition (%) at (400 μM)” value in test [1] was determined as 55%.
On to `COc1cc(/C=C2\SC(=O)NC2=O)ccc1OCCN1CCCCC1` [TDA-1], for which the inhibition at 400 µM on recombinant human HsG6PD was 10%. Besides, the “loss of HpG6PD activity” value on HpG6PD enzyme (by 500 µM, incubation for 2 h at 37 °C) is recorded as “total loss of activity”. The compound also showed an IC50 on HpG6PD enzyme of 204 µM. In addition, the “HpG6PD Inhibition (%) at (400 μM)” value in test [1] (400 µM) is on record as 91%.
On to `COc1ccc(/C=C2\SC(=O)NC2=O)cc1OCc1cccc2ccccc12` [YGC-1], for which the inhibition at 400 µM on recombinant human HsG6PD is 8%. Besides, on HpG6PD enzyme, the inhibition at 800 µM was determined as 91% and the IC50 turned out to be 310 µM. In addition, the “HpG6PD Inhibition (%) at (400 μM)” value in test [1] is reported as 84%.
The like results for `COc1ccc(/C=C2\SC(=O)NC2=O)cc1OCc1cccc(-c2ccccc2)c1` [YGC-3] were, in that order, 0%, 80%, 383 µM and 50%.
`COc1ccc(/C=C2\SC(=O)NC2=O)cc1Oc1nc2ccccc2[nH]1` [YGC-4]: the inhibition at 400 µM on recombinant human HsG6PD was determined as 18%. Besides, on HpG6PD enzyme, the inhibition at 800 µM came to 80% and the concentration for half-maximal inhibition (IC50) is 500 µM. Moreover, in test [1], the “HpG6PD Inhibition (%) at (400 μM)” value is reported as 44%.
